In ChEMBL document CHEMBL1201862, “PubChem BioAssay data set” (2004):
Active and inactive are the calls of the source.

What was measured:
Estrogen receptor beta = Estrogen receptor beta (Homo sapiens, UniProt Q92731); assay: blockers of SRC-3 recruitment to ERβ – biochemical, ELISA, streptavidin-HRP readout, orthogonal assay, confirmation (AID 1060)
[1] = biological target: T1, Alkaline phosphatase, tissue-nonspecific isozyme (Homo sapiens, UniProt P05186); assay: activation of tissue-nonspecific alkaline phosphatase – biochemical, TNAP isozyme, mouse IAP uHTS hits, selectivity assay for mouse IAP activator project, dose response (AID 488880); type: functional
T1 sequence (P05186 whole entry): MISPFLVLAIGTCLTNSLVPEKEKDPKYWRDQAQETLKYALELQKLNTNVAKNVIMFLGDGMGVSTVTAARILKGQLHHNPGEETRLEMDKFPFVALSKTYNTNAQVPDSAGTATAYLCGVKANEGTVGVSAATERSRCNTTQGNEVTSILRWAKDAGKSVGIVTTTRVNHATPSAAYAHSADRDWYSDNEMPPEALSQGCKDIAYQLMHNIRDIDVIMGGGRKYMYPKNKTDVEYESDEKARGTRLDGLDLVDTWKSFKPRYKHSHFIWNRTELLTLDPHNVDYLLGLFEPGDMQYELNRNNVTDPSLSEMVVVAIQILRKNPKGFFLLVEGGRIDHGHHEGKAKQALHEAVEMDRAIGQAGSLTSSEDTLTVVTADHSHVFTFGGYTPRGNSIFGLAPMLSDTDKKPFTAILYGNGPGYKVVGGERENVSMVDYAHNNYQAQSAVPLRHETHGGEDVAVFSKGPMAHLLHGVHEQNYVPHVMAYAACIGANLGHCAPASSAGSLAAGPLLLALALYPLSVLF

[2] = biological target: T2, Intestinal-type alkaline phosphatase (Homo sapiens, UniProt P09923); assay: activation of human intestinal alkaline phosphatase – biochemical, dose response (AID 488873); type: functional
[3] = biological target: T3, Intestinal-type alkaline phosphatase (Mus musculus, UniProt P24822); assay: mouse intestinal alkaline phosphatase activators, dose response, biochemical, luminescence, uHTS hits (AID 488783); type: functional
[4] = biological target: T4, Mannose-6-phosphate isomerase (Homo sapiens, UniProt P34949); assay: MPI inhibition at elevated mannose 6-phosphate – biochemical, fluorescence intensity, high mannose 6-phosphate, primary screen (AID 1220)
T4 sequence (P34949 whole entry): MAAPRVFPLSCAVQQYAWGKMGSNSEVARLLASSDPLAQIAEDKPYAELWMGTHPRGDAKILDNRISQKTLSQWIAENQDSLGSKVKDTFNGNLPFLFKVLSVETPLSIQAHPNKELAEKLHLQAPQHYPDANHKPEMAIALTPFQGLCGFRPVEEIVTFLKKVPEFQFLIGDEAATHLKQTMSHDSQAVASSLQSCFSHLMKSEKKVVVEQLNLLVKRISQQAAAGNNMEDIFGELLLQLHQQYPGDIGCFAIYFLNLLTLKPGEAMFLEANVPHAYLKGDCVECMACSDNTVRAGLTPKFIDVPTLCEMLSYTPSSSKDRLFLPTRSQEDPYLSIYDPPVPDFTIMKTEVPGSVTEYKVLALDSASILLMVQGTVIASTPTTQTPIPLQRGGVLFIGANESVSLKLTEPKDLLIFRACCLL

MDCK [5] = assay: antiviral activity against H1N1 influenza, dose response, cell-based, strain KY180 (AID 540254); type: functional; settings: Canis lupus familiaris
MDCK [6] = assay: MDCK cell cytotoxicity, dose response, cytotoxicity control (AID 540296); type: functional; settings: Canis lupus familiaris
Exodeoxyribonuclease V = Exodeoxyribonuclease V (Escherichia coli (strain K12), UniProt P04993+P07648+P08394); assay: RecBCD inhibition via phage-restricted bacterial growth – absorbance, V66 E. coli, mutant T4 phage, counter-screen for AddAB inhibitor project, dose response (AID 492957); type: functional, cell-based, Escherichia coli str. K-12 substr. MG1655
[7] = alpha-synuclein stem-loop luciferase translation blockers – H4 neuroglioma cells, luminescence, confirmation (AID 1988); type: functional, cell-based
[8] = Luminescence Cell-Based Dose Response HTS to Identify Inhibitors of 5'UTR Stem-Loop Driven Prion Protein mRNA Translation in H4 Neuroglioblastoma Cells. [Related pubchem assays: 1827 (Project Summary), 1813 (Primary HTS)]; type: functional
[9] = Counterscreen for AddAB inhibitors: absorbance-based bacterial cell-based high throughput dose response assay for inhibitors of bacterial viability. [Related pubchem assays (depositor defined):AID435030, AID449728, AID449731, AID488942, AID488955, AID488956]; type: functional
[10] = luciferase reporter signal suppression in cells – H4 neuroglioma cells, luminescence, dose response (AID 1990); type: functional, cell-based
[11] = biological target: T5, Kappa-type opioid receptor (Homo sapiens, UniProt P41145); assay: SAR analysis of small molecule agonists of the kappa opioid receptor via a luminescent beta-arrestin assay - Set 3. [Related pubchem assays (depositor defined):AID1777, AID1785, AID1786, AID1966, AID2133, AID2136, AID2284, AID2500]; type: functional
[12] = biological target: Delta-type opioid receptor (Homo sapiens, UniProt P41143); assay: SAR Analysis of Agonists of the DOR Receptor using an Image-Based Assay - Set 3. [Related pubchem assays (depositor defined):AID1777, AID1786]; type: functional
Mu-type opioid receptor = Mu-type opioid receptor (Homo sapiens, UniProt P35372); assay: SAR Analysis of Agonists of the MOR Receptor using an Image-Based Assay - Set 3. [Related pubchem assays (depositor defined):AID1777, AID1785, AID1786, AID1966, AID2133, AID2136, AID2284, AID2285, AID2352]; type: functional
[13] = biological target: T5, Kappa-type opioid receptor; assay: kappa opioid receptor activation by imaging – image-based, set 3, SAR follow-up (AID 488833); type: functional
[14] = biological target: Dual specificity protein phosphatase 3 (Homo sapiens, UniProt P51452); assay: SAR VHR1 Fluorescent Assay for In Vitro dose response studies Set 3. [Related pubchem assays (depositor defined):AID1654, AID1661, AID1878]; type: functional
[15] = biological target: T6, RNA-binding protein pos-1 (Caenorhabditis elegans, UniProt G5EF15); assay: disruptors of C. elegans POS-1 RNA interaction – biochemical, fluorescence polarization, dose response (AID 1964);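 also: purified POS-1 fused to maltose binding protein made in E. coli; potency of compounds blocking POS-1 binding to fluorescent RNA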
T6 sequence (G5EF15 whole entry): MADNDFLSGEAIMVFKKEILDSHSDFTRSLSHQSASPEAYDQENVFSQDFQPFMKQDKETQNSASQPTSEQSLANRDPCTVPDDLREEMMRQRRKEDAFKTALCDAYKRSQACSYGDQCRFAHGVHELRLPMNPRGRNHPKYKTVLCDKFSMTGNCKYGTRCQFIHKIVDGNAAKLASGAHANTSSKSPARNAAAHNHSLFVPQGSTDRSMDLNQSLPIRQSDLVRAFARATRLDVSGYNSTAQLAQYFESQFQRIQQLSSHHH

[16] = biological target: T7, Zinc finger protein mex-5 (Caenorhabditis elegans, UniProt Q9XUB2); assay: potency of MEX-5 RNA-binding blockers – biochemical, C. elegans, fluorescence polarization, dose response (AID 1960)
T7 sequence (Q9XUB2 whole entry): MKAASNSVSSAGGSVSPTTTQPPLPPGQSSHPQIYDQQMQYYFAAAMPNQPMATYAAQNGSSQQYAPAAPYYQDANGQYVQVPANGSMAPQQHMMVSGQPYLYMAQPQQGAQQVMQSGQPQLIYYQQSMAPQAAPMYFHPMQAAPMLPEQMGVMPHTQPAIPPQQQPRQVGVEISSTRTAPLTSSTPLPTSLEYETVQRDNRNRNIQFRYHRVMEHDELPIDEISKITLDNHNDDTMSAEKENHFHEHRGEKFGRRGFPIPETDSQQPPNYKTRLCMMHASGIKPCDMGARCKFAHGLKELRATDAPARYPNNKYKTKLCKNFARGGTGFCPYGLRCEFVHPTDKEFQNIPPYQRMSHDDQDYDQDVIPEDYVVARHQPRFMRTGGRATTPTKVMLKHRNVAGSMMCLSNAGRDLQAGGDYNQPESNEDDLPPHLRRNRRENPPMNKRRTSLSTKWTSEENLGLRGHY

[17] = biological target: UDP-galactopyranose mutase (Mycobacterium tuberculosis, UniProt P9WIQ1); assay: Inhibitors of Mycobacterium tuberculosis UDP-galactopyranose mutase (UGM) enzyme Measured in Biochemical System Using Plate Reader - 2105-02_Inhibitor_Dose_CherryPick_Activity. [Related pubchem assays (depositor defined):AID504439]
[18] = biological target: Lysine-specific demethylase 4C (Homo sapiens, UniProt Q9H3R0); assay: inhibition of JMJD2C H3K9me3 demethylation – biochemical, DELFIA europium, cherry-picked samples, dose response (AID 488835); type: functional
Cytochrome P450 3A4 = Cytochrome P450 3A4 (Homo sapiens, UniProt P08684);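 also: CYP3A4 tested as one member of a cytochrome P450 panel screen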
[19] = biological target: G-protein coupled receptor 55 (Homo sapiens, UniProt Q9Y2T6); assay: blockers of GPR55 signalling, imaged – imaging, image-based, counter-screen for GPR35 antagonist project, SAR follow-up (AID 2397); type: functional
[20] = biological target: Heat shock cognate 71 kDa protein (Homo sapiens, UniProt P11142); assay: In Vitro Hsc70 Dose Response Fluorescence Polarization Assay. [Related pubchem assays: 1072 ]
[21] = biological target: Glyceraldehyde-3-phosphate dehydrogenase (Homo sapiens, UniProt P04406)
[22] = biological target: T8, Dual specificity protein phosphatase 6 (Rattus norvegicus, UniProt Q64346); type: functional
[23] = biological target: Heat shock 70 kDa protein 1A (Homo sapiens, UniProt P0DMV8); assay: inhibition of Hsp70 binding activity – biochemical, fluorescence polarization, SAR follow-up (AID 1072)
[24] = biological target: T8, Dual specificity protein phosphatase 6
[25] = biological target: T9, Tyrosine-protein phosphatase non-receptor type 7 (Homo sapiens, UniProt P35236); type: functional
T9 sequence (P35236 whole entry): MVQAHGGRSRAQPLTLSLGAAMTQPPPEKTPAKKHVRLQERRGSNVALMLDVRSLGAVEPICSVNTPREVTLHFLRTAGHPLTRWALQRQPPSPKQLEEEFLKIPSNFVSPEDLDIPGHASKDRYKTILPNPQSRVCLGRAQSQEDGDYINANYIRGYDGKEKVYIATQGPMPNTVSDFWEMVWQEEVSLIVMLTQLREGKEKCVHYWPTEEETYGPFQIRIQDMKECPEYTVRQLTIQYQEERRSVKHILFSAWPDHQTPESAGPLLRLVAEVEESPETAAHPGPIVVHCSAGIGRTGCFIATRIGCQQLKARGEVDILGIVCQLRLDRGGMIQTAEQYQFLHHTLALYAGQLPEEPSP

[26] = Luminescence Cell-Based Dose Retest to Confirm Inhibitors of Cancer Stem Cells. [Related pubchem assays (depositor defined):AID2717, AID2721]; type: functional; settings: Homo sapiens
[27] = viability loss of HMLE_sh_eGFP cells – cell-based, luminescence, counter-screen for HMLE_sh_ECad selective toxicity project, dose response (AID 463074); type: functional, Homo sapiens;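 also: HMLE human mammary epithelial cells expressing control shRNA against eGFP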
[28] = biological target: T2, Intestinal-type alkaline phosphatase; assay: human intestinal alkaline phosphatase activators, dose response, biochemical, luminescence, uHTS hits (AID 463120); type: functional
[29] = biological target: T2, Intestinal-type alkaline phosphatase; assay: activation of human intestinal alkaline phosphatase – biochemical, luminescent, uHTS hits, set 2, dose response (AID 488817); type: functional;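 also: potency of activators that raise enzyme activity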
[30] = biological target: T1, Alkaline phosphatase, tissue-nonspecific isozyme; assay: activation of tissue-nonspecific alkaline phosphatase – biochemical, TNAP isozyme, human IAP uHTS hits, selectivity assay for human IAP activator project, dose response (AID 488886); type: functional;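 also: potency of compounds raising TNAP activity as a selectivity check on IAP activators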
[31] = biological target: T3, Intestinal-type alkaline phosphatase; assay: PubChem AID 488875; type: functional

T2 sequence (P09923 whole entry): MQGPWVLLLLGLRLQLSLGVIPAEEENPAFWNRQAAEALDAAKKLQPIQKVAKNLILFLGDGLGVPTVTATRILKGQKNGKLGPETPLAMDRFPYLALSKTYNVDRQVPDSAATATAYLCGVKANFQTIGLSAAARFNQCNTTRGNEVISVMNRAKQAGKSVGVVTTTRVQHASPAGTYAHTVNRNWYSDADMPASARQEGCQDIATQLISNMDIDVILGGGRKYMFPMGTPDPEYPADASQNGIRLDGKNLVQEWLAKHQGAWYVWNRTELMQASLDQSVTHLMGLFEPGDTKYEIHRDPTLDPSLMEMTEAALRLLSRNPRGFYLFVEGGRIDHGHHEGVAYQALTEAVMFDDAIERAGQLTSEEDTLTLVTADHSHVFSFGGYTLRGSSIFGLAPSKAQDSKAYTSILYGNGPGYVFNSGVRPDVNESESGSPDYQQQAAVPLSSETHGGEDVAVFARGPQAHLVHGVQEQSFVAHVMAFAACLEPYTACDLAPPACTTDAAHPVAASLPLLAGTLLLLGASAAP
T3 sequence (P24822 whole entry): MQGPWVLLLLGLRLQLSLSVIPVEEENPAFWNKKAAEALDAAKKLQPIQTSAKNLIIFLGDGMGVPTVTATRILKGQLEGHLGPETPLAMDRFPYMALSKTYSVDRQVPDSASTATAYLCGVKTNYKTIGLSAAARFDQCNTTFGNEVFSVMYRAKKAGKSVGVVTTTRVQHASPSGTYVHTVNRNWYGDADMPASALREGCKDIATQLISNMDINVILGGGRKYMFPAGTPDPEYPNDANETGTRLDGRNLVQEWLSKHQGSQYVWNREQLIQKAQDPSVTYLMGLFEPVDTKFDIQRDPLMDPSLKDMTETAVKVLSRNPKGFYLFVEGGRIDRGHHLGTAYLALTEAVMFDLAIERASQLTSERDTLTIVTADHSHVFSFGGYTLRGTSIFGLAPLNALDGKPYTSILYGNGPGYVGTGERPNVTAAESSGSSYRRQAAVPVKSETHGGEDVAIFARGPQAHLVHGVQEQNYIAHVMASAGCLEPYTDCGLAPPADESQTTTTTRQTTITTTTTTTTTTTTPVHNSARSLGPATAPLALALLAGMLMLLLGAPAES
T5 sequence (P41145 whole entry): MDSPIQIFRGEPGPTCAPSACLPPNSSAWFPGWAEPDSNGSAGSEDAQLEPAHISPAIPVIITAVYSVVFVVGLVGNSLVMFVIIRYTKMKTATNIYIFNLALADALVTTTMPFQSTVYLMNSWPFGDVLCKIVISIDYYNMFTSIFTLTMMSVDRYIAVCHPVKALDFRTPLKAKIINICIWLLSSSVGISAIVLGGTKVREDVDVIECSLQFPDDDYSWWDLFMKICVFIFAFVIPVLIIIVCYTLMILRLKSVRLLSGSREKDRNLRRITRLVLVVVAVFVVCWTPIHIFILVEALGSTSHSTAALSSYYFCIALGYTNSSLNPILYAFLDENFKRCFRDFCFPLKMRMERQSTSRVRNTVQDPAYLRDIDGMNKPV
Cytochrome P450 3A4, sequence (P08684 whole entry): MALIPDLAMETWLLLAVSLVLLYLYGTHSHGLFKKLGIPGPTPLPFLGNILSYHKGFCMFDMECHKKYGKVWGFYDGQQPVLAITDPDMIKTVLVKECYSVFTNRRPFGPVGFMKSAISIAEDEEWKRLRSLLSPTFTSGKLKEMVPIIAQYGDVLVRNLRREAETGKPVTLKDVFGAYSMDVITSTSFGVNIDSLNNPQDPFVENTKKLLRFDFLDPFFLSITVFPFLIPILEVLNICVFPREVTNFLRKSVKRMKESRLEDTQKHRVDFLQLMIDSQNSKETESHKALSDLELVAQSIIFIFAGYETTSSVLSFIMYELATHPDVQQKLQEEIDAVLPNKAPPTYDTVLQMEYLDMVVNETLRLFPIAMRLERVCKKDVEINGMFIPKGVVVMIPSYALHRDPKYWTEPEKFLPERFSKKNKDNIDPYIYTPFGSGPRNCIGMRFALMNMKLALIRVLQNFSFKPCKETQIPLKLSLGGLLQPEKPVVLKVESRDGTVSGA
T8 sequence (Q64346 whole entry): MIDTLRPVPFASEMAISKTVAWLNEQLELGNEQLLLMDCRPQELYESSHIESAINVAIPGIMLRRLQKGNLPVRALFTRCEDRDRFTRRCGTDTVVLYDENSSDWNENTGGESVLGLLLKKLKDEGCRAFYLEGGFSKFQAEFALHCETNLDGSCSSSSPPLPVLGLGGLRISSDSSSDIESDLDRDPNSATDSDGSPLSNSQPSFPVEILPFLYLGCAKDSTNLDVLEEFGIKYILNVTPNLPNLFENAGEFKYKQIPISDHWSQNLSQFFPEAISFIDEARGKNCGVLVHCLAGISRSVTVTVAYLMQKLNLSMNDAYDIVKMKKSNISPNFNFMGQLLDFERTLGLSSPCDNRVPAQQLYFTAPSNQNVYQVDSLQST
Heat shock cognate 71 kDa protein, sequence (P11142 whole entry): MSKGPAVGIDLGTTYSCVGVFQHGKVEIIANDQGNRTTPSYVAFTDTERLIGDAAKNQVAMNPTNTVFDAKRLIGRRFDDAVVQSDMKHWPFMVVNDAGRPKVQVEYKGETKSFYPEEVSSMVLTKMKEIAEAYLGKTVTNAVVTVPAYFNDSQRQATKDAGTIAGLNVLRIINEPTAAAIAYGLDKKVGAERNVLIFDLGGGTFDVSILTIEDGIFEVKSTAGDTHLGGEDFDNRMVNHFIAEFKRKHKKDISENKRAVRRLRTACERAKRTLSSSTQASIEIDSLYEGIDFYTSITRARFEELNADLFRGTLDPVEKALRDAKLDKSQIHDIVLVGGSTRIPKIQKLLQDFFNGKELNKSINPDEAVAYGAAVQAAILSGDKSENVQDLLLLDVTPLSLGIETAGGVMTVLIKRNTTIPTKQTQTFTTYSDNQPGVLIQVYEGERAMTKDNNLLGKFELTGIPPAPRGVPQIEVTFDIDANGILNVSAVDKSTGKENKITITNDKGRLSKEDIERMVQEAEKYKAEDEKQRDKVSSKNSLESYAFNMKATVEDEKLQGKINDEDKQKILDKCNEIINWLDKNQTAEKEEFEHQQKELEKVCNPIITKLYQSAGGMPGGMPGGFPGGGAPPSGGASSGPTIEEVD
Delta-type opioid receptor, sequence (P41143 whole entry): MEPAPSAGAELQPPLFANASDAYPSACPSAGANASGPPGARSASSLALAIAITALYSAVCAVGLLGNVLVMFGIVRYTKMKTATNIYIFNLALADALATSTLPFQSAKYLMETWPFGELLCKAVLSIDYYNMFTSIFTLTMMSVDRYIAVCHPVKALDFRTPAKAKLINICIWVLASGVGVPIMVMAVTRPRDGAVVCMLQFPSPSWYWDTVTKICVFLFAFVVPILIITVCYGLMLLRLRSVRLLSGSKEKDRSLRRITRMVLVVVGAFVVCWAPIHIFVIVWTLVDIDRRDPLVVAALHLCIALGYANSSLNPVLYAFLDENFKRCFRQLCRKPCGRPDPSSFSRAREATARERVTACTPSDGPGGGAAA
UDP-galactopyranose mutase, sequence (P9WIQ1 whole entry): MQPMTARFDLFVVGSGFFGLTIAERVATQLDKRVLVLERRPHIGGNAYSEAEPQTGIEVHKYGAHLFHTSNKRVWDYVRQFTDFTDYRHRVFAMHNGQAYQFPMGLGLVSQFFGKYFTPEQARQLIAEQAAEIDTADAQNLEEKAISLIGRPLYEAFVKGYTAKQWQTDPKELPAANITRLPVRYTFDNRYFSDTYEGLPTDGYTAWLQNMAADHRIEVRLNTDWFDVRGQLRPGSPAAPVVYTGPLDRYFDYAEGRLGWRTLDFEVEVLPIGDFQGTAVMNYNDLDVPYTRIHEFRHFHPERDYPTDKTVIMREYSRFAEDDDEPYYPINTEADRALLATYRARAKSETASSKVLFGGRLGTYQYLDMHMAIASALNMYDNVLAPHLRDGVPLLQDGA
Estrogen receptor beta, sequence (Q92731 whole entry): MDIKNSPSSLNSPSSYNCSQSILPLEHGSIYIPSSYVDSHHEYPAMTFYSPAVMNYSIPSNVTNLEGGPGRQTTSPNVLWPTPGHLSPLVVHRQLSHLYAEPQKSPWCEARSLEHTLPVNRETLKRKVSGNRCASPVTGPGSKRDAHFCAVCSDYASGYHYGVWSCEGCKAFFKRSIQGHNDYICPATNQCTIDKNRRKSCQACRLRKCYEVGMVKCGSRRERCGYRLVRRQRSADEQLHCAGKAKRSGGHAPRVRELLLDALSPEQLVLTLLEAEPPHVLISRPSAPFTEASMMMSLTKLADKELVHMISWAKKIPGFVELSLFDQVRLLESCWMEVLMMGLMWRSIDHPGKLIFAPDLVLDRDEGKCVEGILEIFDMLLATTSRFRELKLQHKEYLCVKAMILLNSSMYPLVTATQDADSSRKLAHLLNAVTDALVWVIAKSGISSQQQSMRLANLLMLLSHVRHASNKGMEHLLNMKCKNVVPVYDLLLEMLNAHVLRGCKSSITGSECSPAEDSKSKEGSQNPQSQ
Mu-type opioid receptor, sequence (P35372 whole entry): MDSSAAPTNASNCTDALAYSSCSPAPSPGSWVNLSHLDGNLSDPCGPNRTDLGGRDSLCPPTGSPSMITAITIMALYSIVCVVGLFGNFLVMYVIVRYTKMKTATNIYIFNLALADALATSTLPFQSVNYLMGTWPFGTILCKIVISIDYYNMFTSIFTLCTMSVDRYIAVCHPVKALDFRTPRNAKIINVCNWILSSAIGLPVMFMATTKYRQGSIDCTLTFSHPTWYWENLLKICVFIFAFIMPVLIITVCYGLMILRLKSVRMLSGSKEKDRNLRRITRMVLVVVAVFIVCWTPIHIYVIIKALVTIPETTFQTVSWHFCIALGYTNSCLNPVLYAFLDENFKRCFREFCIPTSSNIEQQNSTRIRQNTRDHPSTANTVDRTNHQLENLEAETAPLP
Dual specificity protein phosphatase 3, sequence (P51452 whole entry, the tested form may be a part): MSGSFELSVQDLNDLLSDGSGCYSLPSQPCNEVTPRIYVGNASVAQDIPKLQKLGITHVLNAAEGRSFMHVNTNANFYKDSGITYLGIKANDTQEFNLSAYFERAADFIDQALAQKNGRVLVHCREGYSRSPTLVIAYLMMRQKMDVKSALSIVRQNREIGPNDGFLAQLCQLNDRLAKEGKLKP

Structure (SMILES): Oc1ccc2cc3c4cc(Br)ccc4nc-3oc2c1O
- IC50 (Estrogen receptor beta): 5.38 µM (not active)
- EC50 [1]: 24 µM (active)
- EC50 [2]: 21.2 µM (active)
- EC50 [3]: 22.1 µM (active)
- IC50 [4]: 30 µM (active)

Structure (SMILES): CC(c1ccccn1)N(CCN(C)C)C(S)=Nc1cccc(F)c1 (stereo unspecified)
- IC50 (MDCK [5]): 64.7 µM (active)
- CC50 (MDCK [6]): > 40 µM (active)

Structure (SMILES): CCCNC(=O)c1ccc2c(O)c(O)c(-c3ccsc3)nc2c1
- IC50 (Exodeoxyribonuclease V): > 118 µM (inactive)
- EC50 [7]: 8.96 µM (active)
- EC50 [8]: 10.6 µM (active)
- IC50 [9]: > 118 µM (inactive)
- EC50 [10]: 11.7 µM (active)

Structure (SMILES): CC(C)c1ccc(CSc2nnc(-c3ccccn3)n2Cc2ccco2)cc1
- EC50 [11]: 5.97 µM (active)
- EC50 [12]: > 64 µM (inactive)
- EC50 (Mu-type opioid receptor): > 32 µM (inactive)
- EC50 [13]: 2.84 µM (active)

Structure (SMILES): Cc1c(NC(=O)c2cc(-n3cnnc3)ccc2Cl)cccc1-c1nc2ccccc2s1
- IC50 [14]: 18.3 µM (active)

Structure (SMILES): NC(=O)Cn1cc(C=C2C(=O)NC(=O)NC2=O)c2ccccc21
- EC50 [15]: > 300 µM (inconclusive)
- EC50 [16]: > 300 µM (inconclusive)
- AC50 [17]: 82.3 µM (active)

Structure (SMILES): COc1ccc(NC(=O)C2CCCCN2N)cc1OCC(C)C (stereo unspecified)
- AC50 [18]: 27.6 µM (active)

Structure (SMILES): COc1ccc(-c2nnc(-c3cccnc3)o2)cc1
- AC50 (Cytochrome P450 3A4): 1.58 µM (inconclusive)
- IC50 [19]: > 32 µM (inactive)

Structure (SMILES): Cc1ccc(C)c2c1NC(C(=O)O)C1CC=CC21 (stereo unspecified)
- IC50 [20]: > 100 µM (not active)
- IC50 [21]: > 100 µM (not active)
- IC50 [22]: > 100 µM (inactive)
- IC50 [23]: > 100 µM (not active)
- IC50 [24]: > 100 µM (inactive)
- IC50 [25]: > 100 µM (not active)

Structure (SMILES): O=C(COc1ccccc1Cl)Nc1cc(Cl)ccc1Oc1ccccc1
- AC50 (Cytochrome P450 3A4): 15.8 µM (inconclusive)
- AC50 [26]: 3.01 µM (active)
- AC50 [27]: 120 µM (active)

Structure (SMILES): CCOc1cccc(-c2nc(C(N)=O)c3nc(O)n(-c4cccc(Cl)c4)c3n2)c1O
- EC50 [28]: 4.9 µM (active)
- EC50 [29]: 3.66 µM (active)
- EC50 [30]: 2.41 µM (active)
- EC50 [31]: > 100 µM (inactive)
